Results: ChEMBL document CHEMBL5653615 (J Biol Chem, 2013)

Tests used:
[1] = target: Proto-oncogene tyrosine-protein kinase Src (Homo sapiens) (UniProt P12931); assay: Inhibition of human c-Src at 500 nM by HotSpot assay relative to control
[2] = target: T1, Serine/threonine-protein kinase D2 (Homo sapiens) (UniProt Q9BZL6); assay: Inhibition of human PRKD2 at 500 nM by HotSpot assay relative to control
T1 sequence (whole entry): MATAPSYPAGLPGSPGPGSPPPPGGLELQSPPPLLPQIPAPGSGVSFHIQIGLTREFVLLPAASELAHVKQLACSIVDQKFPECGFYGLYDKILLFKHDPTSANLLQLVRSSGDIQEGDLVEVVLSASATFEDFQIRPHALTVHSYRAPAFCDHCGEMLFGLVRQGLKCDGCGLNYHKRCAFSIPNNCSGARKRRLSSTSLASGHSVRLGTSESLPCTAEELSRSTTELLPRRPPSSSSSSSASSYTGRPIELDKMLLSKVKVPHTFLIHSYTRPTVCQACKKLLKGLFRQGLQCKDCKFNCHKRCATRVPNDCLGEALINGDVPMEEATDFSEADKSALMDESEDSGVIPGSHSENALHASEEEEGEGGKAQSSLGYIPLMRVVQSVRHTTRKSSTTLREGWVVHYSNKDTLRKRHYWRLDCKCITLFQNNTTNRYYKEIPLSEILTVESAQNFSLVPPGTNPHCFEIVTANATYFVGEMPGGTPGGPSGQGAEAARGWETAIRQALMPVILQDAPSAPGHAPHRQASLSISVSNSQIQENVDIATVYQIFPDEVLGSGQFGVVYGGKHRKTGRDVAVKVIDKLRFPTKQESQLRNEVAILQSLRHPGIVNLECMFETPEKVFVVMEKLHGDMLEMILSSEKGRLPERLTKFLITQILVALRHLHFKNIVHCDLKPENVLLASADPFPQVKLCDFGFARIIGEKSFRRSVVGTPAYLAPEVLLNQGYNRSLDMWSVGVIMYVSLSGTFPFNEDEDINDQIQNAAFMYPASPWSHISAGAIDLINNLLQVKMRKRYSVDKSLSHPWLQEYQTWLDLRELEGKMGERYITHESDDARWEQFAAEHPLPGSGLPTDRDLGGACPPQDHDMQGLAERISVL

[3] = target: T2, Mitogen-activated protein kinase 12 (Homo sapiens) (UniProt P53778); assay: Inhibition of human P38g at 500 nM by HotSpot assay relative to control
T2 sequence (whole entry): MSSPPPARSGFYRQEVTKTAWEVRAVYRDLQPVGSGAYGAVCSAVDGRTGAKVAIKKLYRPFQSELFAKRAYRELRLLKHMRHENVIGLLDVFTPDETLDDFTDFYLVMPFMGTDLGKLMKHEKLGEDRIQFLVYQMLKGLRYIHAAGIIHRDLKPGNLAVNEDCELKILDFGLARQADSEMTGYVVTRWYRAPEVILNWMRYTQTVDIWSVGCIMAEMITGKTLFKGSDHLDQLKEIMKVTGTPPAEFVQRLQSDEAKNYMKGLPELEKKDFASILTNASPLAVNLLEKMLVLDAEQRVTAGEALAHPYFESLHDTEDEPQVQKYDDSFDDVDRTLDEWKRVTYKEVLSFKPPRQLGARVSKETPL

[4] = target: T3, Serine/threonine-protein kinase BRSK2 (Homo sapiens) (UniProt Q8IWQ3); assay: Inhibition of human BRSK2 at 500 nM by HotSpot assay relative to control
T3 sequence (whole entry): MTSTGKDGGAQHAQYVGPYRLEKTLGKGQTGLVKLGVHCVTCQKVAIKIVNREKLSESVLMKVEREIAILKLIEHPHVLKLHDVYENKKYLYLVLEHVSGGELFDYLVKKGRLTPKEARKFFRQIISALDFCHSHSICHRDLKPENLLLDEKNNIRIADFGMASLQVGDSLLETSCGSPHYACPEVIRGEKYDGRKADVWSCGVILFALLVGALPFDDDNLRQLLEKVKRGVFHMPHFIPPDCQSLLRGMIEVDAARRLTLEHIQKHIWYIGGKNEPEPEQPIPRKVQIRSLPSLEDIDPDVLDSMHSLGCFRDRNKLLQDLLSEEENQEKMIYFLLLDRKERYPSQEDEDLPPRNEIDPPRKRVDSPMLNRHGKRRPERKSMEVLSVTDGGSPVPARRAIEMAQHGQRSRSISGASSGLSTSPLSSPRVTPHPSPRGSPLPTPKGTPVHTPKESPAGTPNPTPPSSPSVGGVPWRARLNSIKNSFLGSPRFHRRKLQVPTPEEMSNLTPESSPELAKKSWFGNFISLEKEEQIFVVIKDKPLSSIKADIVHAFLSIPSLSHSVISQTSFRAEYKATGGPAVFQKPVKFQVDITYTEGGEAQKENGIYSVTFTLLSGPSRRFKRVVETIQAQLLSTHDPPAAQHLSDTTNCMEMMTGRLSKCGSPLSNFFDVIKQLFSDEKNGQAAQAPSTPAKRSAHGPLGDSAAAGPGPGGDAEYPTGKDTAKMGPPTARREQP

[5] = target: Calcium/calmodulin-dependent protein kinase type II subunit gamma (Homo sapiens) (UniProt Q13555); assay: Inhibition of human CAMK2g at 500 nM by HotSpot assay relative to control
Chain of Calcium/calmodulin-dependent protein kinase type II subunit gamma (Homo sapiens) (Q13555 whole entry): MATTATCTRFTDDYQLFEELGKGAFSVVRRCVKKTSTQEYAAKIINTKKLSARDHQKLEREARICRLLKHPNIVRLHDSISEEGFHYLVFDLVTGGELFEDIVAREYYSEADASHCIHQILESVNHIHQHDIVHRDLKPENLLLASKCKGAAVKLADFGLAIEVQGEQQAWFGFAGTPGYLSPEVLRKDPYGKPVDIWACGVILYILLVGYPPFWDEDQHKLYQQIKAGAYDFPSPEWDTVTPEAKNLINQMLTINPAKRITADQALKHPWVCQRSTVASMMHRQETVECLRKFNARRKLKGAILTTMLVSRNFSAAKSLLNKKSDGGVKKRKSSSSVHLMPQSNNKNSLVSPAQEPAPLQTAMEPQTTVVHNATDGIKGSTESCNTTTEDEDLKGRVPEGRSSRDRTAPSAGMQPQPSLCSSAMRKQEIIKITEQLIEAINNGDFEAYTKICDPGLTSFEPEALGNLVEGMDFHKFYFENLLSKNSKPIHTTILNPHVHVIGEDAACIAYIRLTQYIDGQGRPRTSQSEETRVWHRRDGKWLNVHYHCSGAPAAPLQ

[6] = target: Serine/threonine-protein kinase PAK 2 (Homo sapiens) (UniProt Q13177); assay: Inhibition of human PAK2 at 500 nM by HotSpot assay relative to control
Chain of Serine/threonine-protein kinase PAK 2 (Homo sapiens) (Q13177 whole entry): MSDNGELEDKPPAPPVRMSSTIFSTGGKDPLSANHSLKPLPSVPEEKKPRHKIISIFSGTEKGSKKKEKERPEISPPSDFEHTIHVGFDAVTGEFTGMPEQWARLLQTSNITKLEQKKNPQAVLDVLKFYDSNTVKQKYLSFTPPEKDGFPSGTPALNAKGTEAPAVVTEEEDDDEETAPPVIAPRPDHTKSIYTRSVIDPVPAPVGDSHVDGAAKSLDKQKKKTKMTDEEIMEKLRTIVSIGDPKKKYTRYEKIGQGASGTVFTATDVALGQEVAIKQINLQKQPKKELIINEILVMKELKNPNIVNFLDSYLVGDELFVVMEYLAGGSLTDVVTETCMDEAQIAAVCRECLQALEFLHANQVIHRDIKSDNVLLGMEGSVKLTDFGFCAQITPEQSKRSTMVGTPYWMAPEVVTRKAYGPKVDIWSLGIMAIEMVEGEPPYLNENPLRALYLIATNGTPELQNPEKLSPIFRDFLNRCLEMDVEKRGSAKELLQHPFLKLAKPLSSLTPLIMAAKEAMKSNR

[7] = target: Protein-tyrosine kinase 6 (Homo sapiens) (UniProt Q13882); assay: Inhibition of human BRK at 500 nM by HotSpot assay relative to control
Chain of Protein-tyrosine kinase 6 (Homo sapiens) (Q13882 whole entry, looked up): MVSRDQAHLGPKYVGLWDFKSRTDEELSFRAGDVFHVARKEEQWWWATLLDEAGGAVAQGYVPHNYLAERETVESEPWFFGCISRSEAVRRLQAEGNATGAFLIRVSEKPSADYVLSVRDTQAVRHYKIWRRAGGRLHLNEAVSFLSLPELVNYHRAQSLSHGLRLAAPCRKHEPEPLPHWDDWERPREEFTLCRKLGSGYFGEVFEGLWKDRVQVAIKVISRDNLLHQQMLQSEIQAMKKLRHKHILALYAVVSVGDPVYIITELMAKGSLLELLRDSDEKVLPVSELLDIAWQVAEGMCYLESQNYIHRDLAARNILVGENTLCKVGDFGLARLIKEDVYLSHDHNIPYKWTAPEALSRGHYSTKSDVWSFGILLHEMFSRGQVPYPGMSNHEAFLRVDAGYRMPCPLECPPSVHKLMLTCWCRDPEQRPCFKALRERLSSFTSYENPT

Chain of Proto-oncogene tyrosine-protein kinase Src (Homo sapiens) (P12931 2-536 limits assumed): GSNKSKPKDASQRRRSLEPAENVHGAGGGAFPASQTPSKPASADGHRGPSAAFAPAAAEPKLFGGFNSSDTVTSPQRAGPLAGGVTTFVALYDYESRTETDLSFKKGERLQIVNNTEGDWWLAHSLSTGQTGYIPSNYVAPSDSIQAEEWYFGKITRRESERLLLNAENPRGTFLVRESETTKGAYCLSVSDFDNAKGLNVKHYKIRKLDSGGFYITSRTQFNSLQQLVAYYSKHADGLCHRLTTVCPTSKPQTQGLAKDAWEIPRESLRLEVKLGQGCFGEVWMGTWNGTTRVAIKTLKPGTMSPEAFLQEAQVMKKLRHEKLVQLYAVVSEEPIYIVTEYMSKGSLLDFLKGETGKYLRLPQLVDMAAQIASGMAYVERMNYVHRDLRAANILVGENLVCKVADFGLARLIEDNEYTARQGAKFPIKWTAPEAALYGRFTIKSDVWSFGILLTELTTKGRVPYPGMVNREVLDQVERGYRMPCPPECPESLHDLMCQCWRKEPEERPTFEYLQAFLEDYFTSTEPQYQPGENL

| SMILES | inhibition [1] | inhibition [2] | inhibition [3] | inhibition [4] | inhibition [5] | inhibition [6] | inhibition [7] |
| --- | --- | --- | --- | --- | --- | --- | --- |
| Oc1n[nH]c2nnc(-c3c(-c4ccccc4)nn4ccccc34)cc12 | -2.58% | 2.86% | -4.33% | 1.23% | 2.06% | -1.47% | 0.52% |
| Nc1n[nH]c2nnc(-c3c(-c4ccccc4)nn4ccccc34)cc12 | -0.45% | 45.9% | -3.94% | 3.92% | 3.3% | -0.21% | 9.19% |
